Patent US5081112A, “Method for treating hyperlipidemia” (Otsuka Pharmaceutical Factory Inc., priority 1986, dated 1992)
Like-named read-outs stand apart in the source and are kept apart here.

Key:
[1] = tested on: Triton WR-1339-induced hyperlipidemia in rat; test: antilipotropic effect in Triton WR-1339-induced hyperlipidemia in rat; type: in vivo, Wistar-strain male rats; conditions: 50 mg/kg oral, vs control
Excerpt: Wistar-strain male rats of 5-9 week age were used as test animals. One test group consisting of six (6) rats.
[a] is a determined value obtained from the control group, and
[b] is a determined value obtained from the test group).

[2] = tested on: biosynthetic pathway of cholesterol; test: inhibitory effect in biosynthetic pathway of cholesterol; type: biochemical; conditions: 10^-4 M; rat liver microsomes and soluble fraction; 90 min, 100 µM
Experimental: Test for determining inhibitory effect in biosynthetic pathway of cholesterol
Each one of the test compounds was added to rat liver microsomes fraction (containing 0.2 mg of protein) and soluble fraction (containing 2 mg of protein), then the volume of the mixture was adjusted to 100 microliters by adding 0.1 M-potassium phosphate buffer solution (pH 7.4), then this mixture was incubated at 37° C. for 10 minutes.
After the incubation, the reaction was started by adding 200 microliters of a solution containing 1 mM ATP, 10 mM glucose-1-phosphate, 6 mM glutathione, 6 mM MgCl2, […], 0.25 mM […], 0.25 mM NADP, and 1 mM [1-^14 C] sodium acetate (3.0 mCi/mM).
The whole mixture was incubated at 37° C. for 90 minutes, then the reaction was terminated by adding […] of 15%-KOH (a 95% ethanol solution), next 2 mg of cholesterol was added thereto, saponified at 75° C. for 1 hour, and cholesterol was extracted with petroleum ether, the extract was concentrated to dryness. To the residue thus obtained was added with 2.5 ml of a mixture of acetone-diethyl ether (1:1) and 2.5 ml of 1%-digitonin (a 50% ethanol solution), then this solution was allowed to stand for 1 hour in cooling condition by using ice-water to precipitate cholesterol. The precipitate was washed with acetone, a mixture of acetonediethyl ether (1:1) and diethyl ether in this order, then the radioactivity of the residue was measured by using a liquid scintillation counter.
(§1) Control test was also conducted by the procedures similar to those mentioned above in the test group, except that each one of the test compounds was not used.
Inhibitory effect in biosynthetic pathway of cholesterol performed by each one of the test compounds was calculated, in terms of inhibitory ratio (%), from the formula on the basis of the radioactivity of the control group as follows: [formula] (wherein
[c] is a radioactivity of the control group, and
[d] is a radio activity of the test group).

[3] = tested on: acyl-CoA:cholesterol acyltransferase (ACAT); test: inhibitory effect in the enzymatic activities of acyl-CoA:cholesterol acyltransferase (ACAT); type: biochemical; conditions: rat liver microsomes, 2 min; for Inhibitory effect to ACAT (inhibitory ratio), Table 5: head prints 10^14 M; for Inhibitory effect to ACAT (inhibitory ratio): 10^-4 M, 100 µM
Experimental: Test for determining inhibitory effect in the enzymatic activities of acyl-CoA:cholesterol acyltranferase (ACAT)
50 Microliters of each one of the test compounds was added to rat liver microsomes fraction (containing 0.4 mg of protein) of which volume was adjusted to 150 microliters by adding 0.15 M-potassium phosphate buffer solution (pH 7.4), then the mixture was incubated at 37° C. for 10 minutes. After the incubation, the reaction was started by adding 50 microliters of 0.15 M-potassium phosphate buffer solution (pH 7.4) containing 18 nM [1-^14 C] oleoyl-CoA (10 mCi/mM) and 0.6 mg BSA (bovine serum albumin) at 37° C. for 2 minutes. The reaction was terminated by adding 1 ml of ethanol, then 4 ml of n-hexane was added and shaken, then the n-hexane layer (upper layer) was concentrated to the volume of 3 ml under nitrogen gas stream, thus obtained cholesteryl oleate was isolated by means of a silica gel thin chromatography [developing solvent=petroleum ether: diethyl ether (95:5)] and the radioactivity was measured by using a liquid scintillation counter.
as §1
Inhibitory effect in the enzymatic activities of acyl-CoA:cholesterol acyltransferase (ACAT) performed by each one of the test compounds was calculated, in terms of inhibitory ratio (%), from the formula on the basis of the radioactivity of the control group as follows: [formula] (wherein
[e] is a radioactivity of the control group, and
[f] is a radioactivity of the test group).

[4] = tested on: Streptozotocin-induced diabetes in rat; test: serum lipids lowering effect to Streptozotocin-induced diabetes in rat; type: in vivo, Wistar-strain male rats; conditions: 4 hours after 25 mg/kg oral, Streptozocin 100 mg/kg tail vein
Experimental: Test for determining serum lipids lowering effect to Streptozotocin-induceddiabetes in rat
Wistar-strain male rats of 7 week age were used as test animals. One test group consisting of six (6) rats. 100 Milligrams/kg of Streptozocin was administered to the tail vein of the test rat, then 4th day after the administration with Streptozocin, 25 mg/kg of each of the test compounds which was suspended in 0.5%-CMC-Na aqueous solution was orally administered to the rat. Similar to the test group, to each of six (6) rats in control group was administered with Streptozocin, and further orally administered with 0.5%-CMC-Na aqueous solution without containing each of the test compounds.
4 Hours after the administration of each of the test compounds, the blood sample was taken from each of the test rats, and serum triglycerids was measured by using a test reagent of Triglyceride G-Test Wako (manufacturedby Wako Pure Chemicals, Co., Ltd.).

[5] = large amount for a long period; animal test; cited from earlier work
[6] = tested on: plasma high density lipoprotein cholesterol (HDLC); test: increasing rate of plasma high density lipoprotein cholesterol (HDLC) concentration; type: in vivo, male Wistar rats; conditions: 300 mg/kg/day oral for 2 days; rat; vs control
Experimental: Increasing rate (%) of plasma high density lipoportein cholesterol (HDLC) concentration which is performed by a carboxamide compound of the general formula (I) of the present invention was conducted as follows.
Seven-week-old male Wistar rats were used.
The test compound was orally administered for 2 days at a daily dose of 300 mg/kg body weight to each of six (6) rats in test group. The dosing vehicle was 0.5% sodium carboxylmethylcellulose solution, and the dosing volume was 5 ml/kg body weight.
Similar to the procedures taken to the rats in the test group, to each one of six (6) rats in control group was orally administered 0.5% sodium carboxymethylcelluose solution only.
On day 2, after fasting for 20 hours, blood was drawn from the jagular sinus with a heparinized syringe. Plasma was obtained by centrifugation.
Plasma HDLC was determined after precipitation of other lipid fraction with heparin and Ca^2+ by using HDL-C Kit-N (manufactured by Hihon Shoji Kabushiki Kaisha).
Increasing rate (%) of plasma HDLC concentration performed by a test compound was calculated from the formula as follows: [formula]

[7] = 24 hours after Triton WR-1339 (400 mg/kg, tail vein)
[8] = 48 hours after Triton WR-1339 (400 mg/kg, tail vein)
[9] = 24 hours after Triton WR-1339 (400 mg/kg, tail vein), read-out: lowering ratio of serum triglycerides, 24 hours after Triton WR-1339
[10] = 24 hours after Triton WR-1339 (400 mg/kg, tail vein), read-out: lowering ratio of total serum cholesterol, 24 hours after Triton WR-1339
[11] = 48 hours after Triton WR-1339 (400 mg/kg, tail vein), read-out: lowering ratio of serum triglycerides, 48 hours after Triton WR-1339
[12] = 48 hours after Triton WR-1339 (400 mg/kg, tail vein), read-out: lowering ratio of total serum cholesterol, 48 hours after Triton WR-1339

Row | Molecule | Inhibitory ratio of cholesterol biosynthesis [2] [%] | Inhibitory effect to ACAT (inhibitory ratio), Table 5 [3] [%] | Inhibitory effect to ACAT (inhibitory ratio) [3] [%] | further results
1 | 4-diethoxyphosphinoylmethyl-N-(4-bromo-2-cyanophenyl)benzamide [Test compound No. 71] | 56.6 | 79.2 |  | lowering ratio of serum triglycerides, 24 hours after Triton WR-1339 [1, 7]: 85.3%; lowering ratio of total serum cholesterol, 24 hours after Triton WR-1339 [1, 7]: 51.6%; lowering ratio of serum triglycerides, 48 hours after Triton WR-1339 [1, 8]: 95.9%; lowering ratio of total serum cholesterol, 48 hours after Triton WR-1339 [1, 8]: 67.9%
2 | CCC(C)(Oc1ccc(C2(c3ccc(OC(C)(CC)C(=O)O)cc3)CCCCC2)cc1)C(=O)O (centres unmarked) [Clinofibrate, reference compound] |  |  |  | inhibition in vivo at 50 mg/kg [1, 9]: 13.6%; inhibition in vivo at 50 mg/kg [1, 10]: 9.8%; inhibition in vivo at 50 mg/kg [1, 11]: 1.1%; inhibition in vivo at 50 mg/kg [1, 12]: 1.9%; Serum triglyceride [4]: 2,067 mg/dl
3 | CCOC(=O)C(C)(C)Oc1ccc(Cl)cc1 [Clofibrate] |  |  |  | formation of hepatic tumor [5]: the formation of hepatic tumor was observed
4 | CCOP(=O)(Cc1ccc(C(=O)Nc2ccc(Br)cc2)cc1)OCC [compound 8] |  |  |  | inhibition in vivo at 50 mg/kg [1, 9]: 86.8%; inhibition in vivo at 50 mg/kg [1, 10]: 52.2%; inhibition in vivo at 50 mg/kg [1, 11]: 92.5%; inhibition in vivo at 50 mg/kg [1, 12]: 63.6%; Serum triglyceride [4]: 471 mg/dL
5 | CCOP(=O)(Cc1ccc(C(=O)N(Cc2ccccc2)c2ccc([N+](=O)[O-])cc2)cc1)OCC [compound 10] | 75.6 |  | 69.4 | inhibition in vivo at 50 mg/kg [1, 9]: 26.9%; inhibition in vivo at 50 mg/kg [1, 10]: 0%; inhibition in vivo at 50 mg/kg [1, 11]: 68.7%; inhibition in vivo at 50 mg/kg [1, 12]: 16.1%
6 | CC(C)OP(=O)(Cc1ccc(C(=O)NCCc2ccccc2)cc1)OC(C)C [compound 11] | 67.4 | 83.3 |  | inhibition in vivo at 50 mg/kg [1, 9]: 0%; inhibition in vivo at 50 mg/kg [1, 10]: 13.5%; inhibition in vivo at 50 mg/kg [1, 11]: 56.8%; inhibition in vivo at 50 mg/kg [1, 12]: 32.6%
7 | CCCCCCNC(=O)c1ccc(C(C)P(=O)(OC(C)C)OC(C)C)cc1 (centres unmarked) [compound 26] | 67.4 | 88.9 |  | 
8 | CCOP(=O)(Cc1ccc(C(=O)Nc2cccc(C(F)(F)F)c2)cc1)OCC [compound 27] | 36.2 | 39.5 |  | 
9 | O=C(Nc1c(Cl)cccc1Cl)c1ccc(CP(=O)(Oc2ccccc2)Oc2ccccc2)cc1 [compound 29] | 35.8 | 73.9 |  | 
10 | CCOP(=O)(Cc1ccc(C(=O)NCCC(c2ccccc2)c2ccccc2)cc1)OCC [compound 31] | 65.4 | 87.7 |  | 
11 | CCOP(=O)(Cc1ccc(C(=O)N(c2ccccc2)C(C)C)cc1)OCC [compound 32] | 36.4 | 20.1 |  | 
12 | CCOP(=O)(Cc1ccc(C(=O)N(c2ccccc2)c2ccccc2)cc1)OCC [compound 36] | 61.1 | 63.1 |  | 
13 | CCOP(=O)(Cc1ccc(C(=O)N(Cc2ccccc2F)c2ccccc2)cc1)OCC [compound 41] | 84.2 |  | 84.0 | 
14 | CCOP(=O)(Cc1ccc(C(=O)N(Cc2ccccc2)c2cccc(C(F)(F)F)c2)cc1)OCC [compound 50] | 78.2 |  | 84.8 | 
15 | CCOP(=O)(Cc1ccc(C(=O)N(Cc2ccccc2)c2cc(OC)c(OC)c(OC)c2)cc1)OCC [compound 52] | 65.6 |  | 60.5 | 
16 | CCOP(=O)(Cc1ccc(C(=O)N2CCN(c3ccc(Cl)cc3)CC2)cc1)OCC [compound 58] | 58.4 |  | 56.6 | 
17 | CCCCCCNC(=O)c1ccc(C(C)P(=O)(OCC)OCC)cc1 (centres unmarked) [compound 63] | 58.9 |  | 88.9 | 
18 | CCOP(=O)(Cc1cccc(C(=O)Nc2ccccc2)c1)OCC [compound 64] |  | 37.6 |  | 
19 | CCOP(=O)(Cc1ccc(C(=O)N(Cc2ccccc2)c2ccccc2)cc1)OCC [compound 65] |  |  | 87.7 | 
20 | CCOP(=O)(Cc1ccc(C(=O)Nc2ccccc2C(=O)O)cc1)OCC [compound 66] |  |  | 26.0 | 
21 | CCOP(=O)(Cc1ccc(C(=S)Nc2ccccc2)cc1)OCC [compound 70] |  |  | 39.4 | 
22 | CCOP(=O)(Cc1ccc(C(=O)Nc2ccc(Br)cc2C#N)cc1)OCC [compound 71] |  |  |  | Increasing rate (%) of high density lipids concentration in the serum (plasma HDLC) [6]: 193%
23 | CCOP(=O)(Cc1ccc(C(=O)Nc2ccc(Cl)cc2C#N)cc1)OCC [compound 72] |  |  |  | Increasing rate (%) of high density lipids concentration in the serum (plasma HDLC) [6]: 196%
24 | CCOP(=O)(Cc1ccc(C(=O)Nc2ccc(C#N)cc2Cl)cc1)OCC [compound 73] |  |  |  | Increasing rate (%) of high density lipids concentration in the serum (plasma HDLC) [6]: 187%
25 | CCOP(=O)(Cc1ccc(C(=O)Nc2ccc(I)cc2C#N)cc1)OCC [compound 74] |  |  |  | Increasing rate (%) of high density lipids concentration in the serum (plasma HDLC) [6]: 187%
26 | CCOP(=O)(Cc1ccc(C(=O)Nc2ccc(C#N)cc2Br)cc1)OCC [compound 75] |  |  |  | Increasing rate (%) of high density lipids concentration in the serum (plasma HDLC) [6]: 222%
27 | CCOP(=O)(Cc1ccc(C(=O)Nc2ccc(Br)c(C#N)c2)cc1)OCC [compound 76] |  |  |  | Increasing rate (%) of high density lipids concentration in the serum (plasma HDLC) [6]: 111%
28 | CCOP(=O)(Cc1ccc(C(=O)Nc2ccc(C#N)cc2I)cc1)OCC [compound 77] |  |  |  | Increasing rate (%) of high density lipids concentration in the serum (plasma HDLC) [6]: 184%
